This is an account of results in US20130302442A1, “METHODS OF USING (4S,4AS,5AR,12AS)-4-DIMETHYLAMINO-3,10,12,12A-TETRAHYDROXY-7-[(METHOXY(METHYL)AMINO)-METHYL]-1,11-DIOXO-1,4,4A,5,5A,6,11,12A-OCTAHYDRO-NAPHTHACENE-2-CARBOXYLIC ACID AMIDE” (priority 2012, published 2013).

For orientation: MIC means the smallest concentration in the dilution series that meets the test's criterion for growth inhibition. By MIC50 is commonly meant an inhibitory concentration at the 50% level, which refers to growth in some studies and to a panel of isolates in others. One may read the MIC90 as an inhibitory concentration at the 90% level, which refers to growth in some studies and to a panel of isolates in others.

Values after ≈ are worked out from the molar mass of the structure shown. Where two headings read alike, the source gives them in different places.

Experiment [1] relates to Helicobacter pylori. The following applies: H. pylori reference strain 3718, ATCC 43504; Clinical and Laboratory Standards Institute quality control range; cited from earlier work.
Experiment [2] has as its system Helicobacter pylori. Put plainly: In vitro MIC against multiple isolates of H. pylori. Type of experiment: cell-based. To be noted: for MIC Range: H. pylori clinical isolate summary; for MIC90: MIC for 90% of clinical test isolates.

Take `CC1(C)S[C@@H]2[C@H](NC(=O)[C@H](N)c3ccc(O)cc3)C(=O)N2[C@H]1C(=O)O` [AMX, amoxicillin]: the “MIC, CLSI Quality Control Range” value in the experiment with Helicobacter pylori [1] is reported as “(0.015-0.12) μg/mL”. Further, in the experiment on Helicobacter pylori [2], the “MIC Range” value was 0.015 to 0.12 µg/mL. The MIC was found to be 0.06 µg/mL (≈ 0.164 µM) with Helicobacter pylori [2] (H. pylori clinical isolate, culture No. 4368); 0.12 µg/mL (≈ 0.328 µM) in the experiment on Helicobacter pylori [2] (H. pylori clinical isolate, culture No. 4369); 0.12 µg/mL (≈ 0.328 µM) in the experiment on Helicobacter pylori [2] (H. pylori clinical isolate, culture No. 4370); 0.12 µg/mL (≈ 0.328 µM) against Helicobacter pylori [2] (H. pylori clinical isolate, culture No. 4371); 0.015 µg/mL (≈ 0.041 µM) against Helicobacter pylori [2] (H. pylori clinical isolate, culture No. 4372); 0.015 µg/mL (≈ 0.041 µM) with Helicobacter pylori [2] (H. pylori clinical isolate, culture No. 4374). Also, the MIC in the experiment with Helicobacter pylori [2] (H. pylori clinical isolate, culture No. 4375) was found to be 0.12 µg/mL (≈ 0.328 µM); with Helicobacter pylori [2] (H. pylori clinical isolate, culture No. 4377), 0.015 µg/mL (≈ 0.041 µM); against Helicobacter pylori [2] (H. pylori clinical isolate, culture No. 4503), 0.03 µg/mL (≈ 0.0821 µM); against Helicobacter pylori [2] (H. pylori clinical isolate, culture No. 4504), 0.015 µg/mL (≈ 0.041 µM); in the experiment on Helicobacter pylori [2] (H. pylori reference strain, culture No. 3718, ATCC 43504) it was 0.03 µg/mL (≈ 0.0821 µM); in the experiment on Helicobacter pylori [2] (H. pylori reference strain, culture No. 3719, ATCC 700824), 0.015 µg/mL (≈ 0.041 µM). Moreover, the MIC against Helicobacter pylori [2] (H. pylori reference strain, culture No. 3720, ATCC BAA-945) turned out to be 0.06 µg/mL (≈ 0.164 µM). For the same molecule, the MIC50 in the experiment on Helicobacter pylori [2] (H. pylori, MIC for 50% of clinical test isolates) was 0.03 µg/mL (≈ 0.0821 µM). In the experiment on Helicobacter pylori [2] (H. pylori), this molecule displayed an MIC90 of 0.12 µg/mL (≈ 0.328 µM).
Turning to `Cc1ncc([N+](=O)[O-])n1CCO` [Metronidazole, metronidazole], the “MIC, CLSI Quality Control Range” value in the experiment with Helicobacter pylori [1] was 64 to 256 µg/mL. In addition, the “MIC Range” value with Helicobacter pylori [2] is “≦0.03-64 μg/mL”. Moreover, the MIC was found to be 64 µg/mL (≈ 374 µM) in the experiment on Helicobacter pylori [2] (Helicobacter pylori, ATCC43504, H. pylori reference strain, culture No. 3718, ATCC 43504, read-out: MIC); 1 µg/mL (≈ 5.84 µM) in the experiment with Helicobacter pylori [2] (Helicobacter pylori, ATCC700824, H. pylori reference strain, culture No. 3719, ATCC 700824, read-out: MIC); 1 µg/mL (≈ 5.84 µM) in the experiment on Helicobacter pylori [2] (Helicobacter pylori, ATCCBAA945, H. pylori reference strain, culture No. 3720, ATCC BAA-945, read-out: MIC); 0.25 µg/mL (≈ 1.46 µM) in the experiment with Helicobacter pylori [2] (Helicobacter pylori, H. pylori clinical isolate, culture No. 4368, read-out: MIC); 0.5 µg/mL (≈ 2.92 µM) with Helicobacter pylori [2] (Helicobacter pylori, H. pylori clinical isolate, culture No. 4369, read-out: MIC); 0.12 µg/mL (≈ 0.701 µM) in the experiment with Helicobacter pylori [2] (Helicobacter pylori, H. pylori clinical isolate, culture No. 4370, read-out: MIC). The MIC in the experiment with Helicobacter pylori [2] (Helicobacter pylori, H. pylori clinical isolate, culture No. 4371, read-out: MIC) is 1 µg/mL (≈ 5.84 µM); with Helicobacter pylori [2] (Helicobacter pylori, H. pylori clinical isolate, culture No. 4372, read-out: MIC), 0.25 µg/mL (≈ 1.46 µM); in the experiment on Helicobacter pylori [2] (Helicobacter pylori, H. pylori clinical isolate, culture No. 4374, read-out: MIC), 0.12 µg/mL (≈ 0.701 µM); in the experiment with Helicobacter pylori [2] (Helicobacter pylori, H. pylori clinical isolate, culture No. 4375, read-out: MIC) it was 0.12 µg/mL (≈ 0.701 µM); in the experiment with Helicobacter pylori [2] (Helicobacter pylori, H. pylori clinical isolate, culture No. 4377, read-out: MIC), 1 µg/mL (≈ 5.84 µM); with Helicobacter pylori [2] (Helicobacter pylori, H. pylori clinical isolate, culture No. 4503, read-out: MIC), at most 0.03 µg/mL. The MIC in the experiment on Helicobacter pylori [2] (Helicobacter pylori, H. pylori clinical isolate, culture No. 4504, read-out: MIC) is at most 0.03 µg/mL. Besides, the MIC90 in the experiment with Helicobacter pylori [2] (Helicobacter pylori, H. pylori, read-out: MIC90) was 1 µg/mL (≈ 5.84 µM). For the same molecule, the MIC50 with Helicobacter pylori [2] (Helicobacter pylori, read-out: MIC50) was found to be 0.12 µg/mL (≈ 0.701 µM).
